Assay results: patent publication US7179823B1, “5-membered n-heterocyclic compounds with hypoglycemic and hypolipidemic activity” (Takeda Pharmaceutical Company Limited, priority 1999, dated 2007)
Like-named read-outs stand apart in the source and are kept apart here.

Tests used:
KKA^y mice = assay: Hypoglycemic and hypolipidemic actions in mice; assay type: in vivo; details: Mus musculus, po, 96 h, four days; for inhibition in vivo at 0.005 %: 0.005% in powdery diet; for inhibition in vivo at 0.0003 %: 0.0003% in powdery diet; for inhibition in vivo at 0.01 %: 0.01% in powdery diet; for inhibition in vivo at 0.001 %: 0.001% in powdery diet
Source text: Hypoglycemic and Hypolipidemic Actions in Mice
Test compounds were mixed in a powdery diet (CE-2, Japan Clea) at the concentration of 0.01% (compounds of Examples 12, 30, 89, 186), 0.005% (compounds of Examples 7, 80, 82, 181, 182, 184, 256, 262, 283), 0.001% (compounds of Examples 9, 104, 110, 155, 156, 160, 167, 169, 172, 174, 176, 189), or 0.0003% (compounds of Examples 38, 40, 44), and freely given to KKA^y mice (9 to 12 weeks old, 5 mice in a group), a model of obese and type 2 diabetes mellitus, for four days. During this period, water was given freely. Blood was sampled from orbital venous plexus, and glucose and triglyceride levels in plasma separated from blood were determined enzymatically using L type Wako Glu2 (Wako Pure Chemical Industries, Ltd.) or L type Wako TG•H (Wako Pure Chemical Industries, Ltd.), respectively.
In the Table, the value of each treatment group is represented as percent reduction compared with the non-treatment group.

PPARγ-RXRα heterodimer = molecular target: T1, PPARγ-RXRα heterodimer (Homo sapiens, UniProt P37231); assay: PPARγ-RXRα heterodimer ligand activity (luciferase reporter, PPARγ:RXRα:4ERPP/CHO-K1 cells); assay type: cell-based; details: 48 hours, concentration for 50% of the maximum fold induction
T1 construct: expressed in transfected cells; host or cells: CHO-K1
T1 sequence (P37231 1-477 isoform P37231-2): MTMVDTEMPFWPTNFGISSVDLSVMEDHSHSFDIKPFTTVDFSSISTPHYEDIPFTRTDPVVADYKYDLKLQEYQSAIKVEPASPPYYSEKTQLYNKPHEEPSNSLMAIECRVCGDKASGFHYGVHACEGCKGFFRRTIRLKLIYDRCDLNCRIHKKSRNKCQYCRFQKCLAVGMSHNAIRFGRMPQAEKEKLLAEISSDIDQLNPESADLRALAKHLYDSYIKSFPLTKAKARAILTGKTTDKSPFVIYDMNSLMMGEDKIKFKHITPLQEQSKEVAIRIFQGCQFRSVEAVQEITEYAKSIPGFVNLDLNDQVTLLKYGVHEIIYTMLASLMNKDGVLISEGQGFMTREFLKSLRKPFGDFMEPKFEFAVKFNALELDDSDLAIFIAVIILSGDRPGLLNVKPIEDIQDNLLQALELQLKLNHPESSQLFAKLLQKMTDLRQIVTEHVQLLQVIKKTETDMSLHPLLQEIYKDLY
T1 sequence (P19793 1-462 partner): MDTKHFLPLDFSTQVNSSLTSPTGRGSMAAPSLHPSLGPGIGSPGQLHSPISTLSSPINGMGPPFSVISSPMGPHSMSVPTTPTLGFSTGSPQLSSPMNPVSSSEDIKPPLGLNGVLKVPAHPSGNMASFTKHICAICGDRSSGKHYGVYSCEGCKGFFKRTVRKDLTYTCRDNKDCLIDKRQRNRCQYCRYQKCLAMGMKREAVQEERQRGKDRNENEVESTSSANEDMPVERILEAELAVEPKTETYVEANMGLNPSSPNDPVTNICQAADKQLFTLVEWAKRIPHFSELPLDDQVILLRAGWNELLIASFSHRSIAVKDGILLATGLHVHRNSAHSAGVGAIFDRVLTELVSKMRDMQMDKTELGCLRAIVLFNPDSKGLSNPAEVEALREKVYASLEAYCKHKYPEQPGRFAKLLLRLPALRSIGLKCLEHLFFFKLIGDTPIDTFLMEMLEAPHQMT
Experimental: (PPARγ-RXRα Heterodimer Ligand Activity)
A PPARγ:RXRα:4ERPP/CHO-K1 cells obtained in Reference Example 5 described later were cultured in HAM F12 medium (produced by NISSUI SEIYAKU) containing 10% Fetal bovine serum (produced by Life Technologies, Inc., USA) and then inoculated to a 96-well white plate (produced by Corning Costar Corporation, USA) at the density of 2×10^4 cells/well, and cultured in a CO2 gas incubator at 37° C. overnight.
After washing the 96 well white plate with PBS (Phosphate-buffered saline), 90 μl of HAM F12 medium containing 0.1% fatty acid-free bovine serum albumin (BSA) and 10 μl of test compound were added, which was cultured in a CO2 gas incubator at 37° C. for 48 hours. After removing the medium, 40 μl of PIKKAGENE 7.5 (produced by Wako Pure Chemical Industries, Ltd.) was added. After stirring, the luciferase activity was determined using Lumistar (produced by BMG Labtechnologies GmbH, Germany).
A fold induction was calculated based on the luciferase activity of each test compound by taking the luciferase activity in the non-treatment group as 1. The values of the test compound concentration and the fold induction were analyzed using PRISM 2.01 (produced by GraphPad Software Inc. USA) to calculate the EC50 values, the effective concentration of a test compound for 50% of the maximum fold induction.
(Introduction of Human PPARγ- and RXRα-Expressing Plasmid and Reporter Plasmid into CHO-K1 Cell and Establishment of Expressed Cell)
After a CHO-K1 cell cultured in a 750 ml tissue culture flask (produced by Corning Costar Corporation, USA) containing HAM F12 medium (produced by NISSUI SEIYAKU) supplemented with 10% Fetal Bovine Serum (produced by Life Technologies, Inc., USA) was scraped by treating with 0.5 g/L trypsin-0.2 g/L EDTA (ethylenediaminetetraacetic acid) (produced by Life Technologies, Inc., USA), the cell was washed with PBS (phosphate-buffered saline) (produced by Life Technologies, Inc., USA), centrifuged (1000 rpm, 5 minutes), and then suspended in PBS. Subsequently, a DNA was introduced into the cell under the condition shown below using GENE PULSER (produced by Bio-Rad Laboratories, USA).
Namely, to a cuvette having a 0.4 cm gap, added were 8×10^6 cells and 10 μg of plasmid pVgRXR2-hPPAR γ obtained in Reference Example 3 and 10 μg of reporter plasmid pGL3-4ERPP-TK neo obtained in Reference Example 4, which was subjected to electroporation at the voltage of 0.25 kV under the capacitance of 960 μF. Subsequently, the cell was transferred into a HAM F12 medium containing 10% Fetal Bovine Serum and cultured for 24 hours and then the cell was scraped again and centrifuged, and then suspended in HAM F12 medium containing 10% Fetal Bovine Serum supplemented with 500 μg/ml of GENETICIN (produced by Life Technologies, Inc., USA) and 250 μg/ml of ZEOCIN (produced by Invitrogen, USA) and diluted to the density of 10^4 cells/ml upon inoculation to a 96-well plate (produced by Corning Costar Corporation, USA), which was cultured in a CO2 gas incubator at 37° C., whereby obtaining a GENETICIN- and ZEOCIN-resistant transformant.
Subsequently, after the transformant cell line thus obtained was cultured in a 24-well plate (produced by Corning Costar Corporation, USA), selected was a cell line in which the luciferase was expressed and induced, i.e., PPARγ:RXRα:4ERPP/CHO-K1 cell by addition of 10 μM pioglitazone hydrochloride.

[1] = percent reduction of plasma glucose compared with the non-treatment group, read-out: Hypoglycemic action (%)
[2] = percent reduction of plasma triglyceride compared with the non-treatment group, read-out: Hypolipidemic action (%)

EC50 (PPARγ-RXRα heterodimer) [nM]	melting point [°C]	Structure (SMILES)	inhibition in vivo at 0.005 % (KKA^y mice; [1]) [%]	inhibition in vivo at 0.005 % (KKA^y mice; [2]) [%]	inhibition in vivo at 0.0003 % (KKA^y mice; [1]) [%]	inhibition in vivo at 0.0003 % (KKA^y mice; [2]) [%]	inhibition in vivo at 0.01 % (KKA^y mice; [1]) [%]	inhibition in vivo at 0.01 % (KKA^y mice; [2]) [%]	inhibition in vivo at 0.001 % (KKA^y mice; [1]) [%]	inhibition in vivo at 0.001 % (KKA^y mice; [2]) [%]
33	126 to 127	CCOc1nn(Cc2ccc(OCc3nc(-c4ccccc4)oc3C)nc2)cc1CC(=O)O [Example 262, 3-ethoxy-1-[6-(5-methyl-2-phenyl-4-oxazolylmethoxy)-3-pyridylmethyl]-1H-pyrazol-4-ylacetic acid]	45	61						
38	114 to 115	O=C(O)CCc1cn(Cc2ccc(OCc3csc(-c4ccco4)n3)cc2)cc1-c1ccccc1 [Example 38, 3-[1-[4-[2-(2-furyl)-4-thiazolylmethoxy]benzyl]-4-phenyl-3-pyrrolyl]propionic acid]			44	69				
320	131 to 132	O=C(O)CCc1cn(Cc2ccc(OCc3cccnc3)cc2)cc1-c1ccccc1 [Example 12, 3-[4-phenyl-1-[4-(3-pyridylmethoxy)benzyl]-3-pyrrolyl]propionic acid]					46	63		
13	139 to 140	O=C(O)CCc1cn(Cc2ccc(OCc3coc(-c4ccccc4)n3)cc2)cc1-c1ccccc1 [Example 44, 3-[4-phenyl-1-[4-(2-phenyl-4-oxazolylmethoxy]benzyl]-3-pyrrolyl]propionic acid]			47	74				
0.22		Cc1oc(-c2ccccc2)nc1COc1ccc(Cn2cc(CCC(=O)O)c(-c3ccccc3)n2)cn1 [Example 283, 3-[1-[2-(5-methyl-2-phenyl-4-oxazolylmethoxy)-5-pyridylmethyl]-3-phenyl-1H-pyrazol-4-yl]propionic acid]	52	78						
1.5	117 to 118	Cc1oc(-c2cccs2)nc1COc1ccc(Cn2cc(CCC(=O)O)c(-c3ccccc3)c2)cc1 [Example 9, 3-[1-[4-[5-methyl-2-(2-thienyl)-4-oxazolylmethoxy]benzyl]-4-phenyl-3-pyrrolyl]propionic acid]							48	70
0.23	179 to 180	Cc1oc(-c2ccccc2)nc1COc1ccc(Cn2cc(CCC(=O)O)c(-c3ccccc3)n2)cc1 [Example 89, 3-[1-[4-(5-methyl-2-phenyl-4-oxazolylmethoxy)benzyl]-3-phenyl-1H-pyrazol-4-yl]propionic acid]					48	70		
57	106 to 107	O=C(O)CCc1cn(Cc2ccc(OCc3csc(-c4cccs4)n3)cc2)cc1-c1ccccc1 [Example 40, 3-[4-phenyl-1-[4-[2-(2-thienyl)-4-thiazolylmethoxy]benzyl]-3-pyrrolyl]propionic acid]			41	66				
9.7	111 to 112	O=C(O)CCc1cn(Cc2ccc(OCc3csc(-c4ccccc4)n3)cc2)cc1-c1ccccc1 [Example 30, 3-[4-phenyl-1-[4-(2-phenyl-4-thiazolylmethoxy)benzyl]-3-pyrrolyl]propionic acid]					54	77		
